Laboratory results as given in US20090232757A1, “Use of gamma-amino butyric acid as a depigmenting agent” (priority 2006, published 2009).
“And” between values parts separate entries of the source, which are not always exact repeats. Equal values may be shown once. Read-outs that look alike come from different tables or passages of the source. Marks after values point to notes of the source that are not given here.

Tests used:
normal human melanocytes [1] = conditions: for Dose from which a cytotoxic effect is detected (less than 80% of the viable cells still present) / Percentage of viability (vs controls), Mean: human, 72 h
Method: The determination is performed with normal human melanocytes obtained from a young patient. For the performance of the tests, the cells have been cultured until obtention of confluent mono-layers.
As a comparison one has prepared a 10% solution of kojic acid and a 30% solution of lactic acid (composition E).
The tested preparations have been then directly diluted in the incubation medium for the melanocytes.
At the end of the incubation period, the viability of the cells has been evaluated using a spectrophotometric method for dosing the activity of the intracellular phosphatases. According to the method of Yan T. et al. (Anal. Biochem. 24 (1996) 103-108), one doses the p-nitrophenol resulting from the conversion of the phosphate of p-nitrophenol by means of the intracellular phophatases of the viable cells present in the wall of culture.

normal human melanocytes [2] = assay: Melanomodulating effect: intracellular melanine/proteins ratio in normal human melanocytes in monolayer culture (72 h); type: cell-based
Description: The search of a “melanomodulating” effect has been performed in two steps: • melanomodulating effect of the active ingredients taken separately at predetermined concentrations in the cytotoxicity tests. • Melanomodulating effect of the complex, i.e. GABA in admixture with the other ingredients, white mulberry, lemon and lactic acid.
These tests have been performed on a model of normal human melanocytes cultured on monolayer cultures.
Gamma aminobutyric acid, lemon extract and white mulberry extract have been solubilized and directly diluted in the culture medium.
In this method the ratio melanine/proteins is determined as a percentage of the controls.
The effect of a complex containing the active ingredients A (gamma aminobutyric acid), C, D and lactic acid (composition E) has also been evaluated as a comparating element, on the synthesis of melanine in a model of normal human melanocytes cultured in a monolayer culture.
The tested compositions have therafter been directly diluted in the incubation medium for the melanocytes at a concentration of 0.1, 0.5 and 1% (v/v).
Normal human melanocytes have been utilized stemming from a young patient. They have been cultured in a monolayer culture until of a confluence of 80%.
1—Dosage of Melanine: • at the end of the incubation period, the intra cellular content of melanine has been quantified after cellular lysis, using a spectrophotometric measure at 405 nm.
2—Dosage of the Proteins: • at the end of incubation period the proteins contained in the cellular lysates have been determined using a spectrocolometric method based on Coomassie Blue according to the method of Bradford M. (Anal. Biochem. 72 (1976) 248-254).

tyrosinase = target: T1, tyrosinase (Homo sapiens, UniProt P14679); assay: Inhibiting activity on tyrosinase in cultures of normal human melanocytes; type: cell-based
T1 construct: cultures of normal human melanocytes; endogenous in cells; host or cells: normal human melanocytes
Description: Gamma aminobutyric acid as well as its salts and derivatives used in such compositions has been studied on isolated cells and namely on cultures of normal human melanocytes. […] The obtained results are a function of the doses what is in favour of a specific effect of gamma-aminobutyric acid on this kind of parameters.

T1 sequence (P14679 19-529): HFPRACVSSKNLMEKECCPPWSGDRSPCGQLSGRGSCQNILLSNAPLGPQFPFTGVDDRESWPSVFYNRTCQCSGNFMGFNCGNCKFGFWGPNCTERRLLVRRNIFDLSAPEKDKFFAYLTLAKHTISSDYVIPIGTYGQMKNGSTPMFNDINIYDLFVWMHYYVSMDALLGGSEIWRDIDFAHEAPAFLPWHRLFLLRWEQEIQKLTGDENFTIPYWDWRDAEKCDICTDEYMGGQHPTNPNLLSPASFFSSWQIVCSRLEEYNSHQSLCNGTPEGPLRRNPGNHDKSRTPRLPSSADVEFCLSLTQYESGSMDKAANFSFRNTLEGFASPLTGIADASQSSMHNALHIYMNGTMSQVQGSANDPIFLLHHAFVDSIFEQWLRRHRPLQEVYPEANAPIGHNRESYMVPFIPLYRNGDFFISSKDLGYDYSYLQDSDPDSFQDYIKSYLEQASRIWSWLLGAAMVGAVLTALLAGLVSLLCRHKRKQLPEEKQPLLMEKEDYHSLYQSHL

For `CC(O)C(=O)O` (stereo not shown) [E, lactic acid], the “Cytotoxicity, result in words” value (normal human melanocytes [1]) was “clearly cytotoxic”, the “Dose from which a cytotoxic effect is detected (less than 80% of the viable cells still present)” value (normal human melanocytes [1]) was 0.03% and the “Percentage of viability (vs controls), Mean” value (from here on “Percentage of viability”) (normal human melanocytes [1]; 0.003 % (v/v)) was 80.8%. The “Percentage of viability” value (normal human melanocytes [1]; 0.03 % (v/v)) was 73.2%, the “Percentage of viability” value (normal human melanocytes [1]; 0.075 % (v/v)) was 70.8% and the “Percentage of viability” value (normal human melanocytes [1]; 0.15 % (v/v)) was 65.9%. For the same compound, the “Percentage of viability” value (normal human melanocytes [1]; 0.3 % (v/v)) was 6.2%, the “Percentage of viability” value (normal human melanocytes [1]; 0.75 % (v/v)) was 2.4% and the “Percentage of viability” value (normal human melanocytes [1]; 1.5 % (v/v)) was 0.2%. For the same compound, the “Percentage of viability” value (normal human melanocytes [1]; 3 % (v/v)) was 0.8%.
`NCCCC(=O)O` [A, gamma aminobutyric acid] was tested, and the “Dose from which a cytotoxic effect is detected (less than 80% of the viable cells still present)” value (normal human melanocytes [1]) was 0.5%, the “Concentration from which results on ratio melanine/proteins are statistically significant” value (normal human melanocytes [2]; Step 1, 72 h) was 0.1% and the “Ratio Melanine Proteins (% of the controls), Mean” value (normal human melanocytes [2]; Step 1, A 0.001% (w/v), 72 h, mean) was 101.9 % of the controls. The “Ratio Melanine Proteins (% of the controls)” value (normal human melanocytes [2]; Step 1, A 0.001% (w/v), 72 h, single values) was 98.8 % of the controls and 108.6 % of the controls and 98.3 % of the controls, the “Ratio Melanine Proteins (% of the controls), Mean” value (normal human melanocytes [2]; Step 1, A 0.01% (w/v), 72 h, mean) was 96.6 % of the controls and the “Ratio Melanine Proteins (% of the controls)” value (normal human melanocytes [2]; Step 1, A 0.01% (w/v), 72 h, single values) was 87.0 % of the controls and 101.8 % of the controls and 101.1 % of the controls. For the same compound, the “Ratio Melanine Proteins (% of the controls), Mean” value (normal human melanocytes [2]; Step 1, A 0.1% (w/v), 72 h, mean) was 74.0* % of the controls, the “Ratio Melanine Proteins (% of the controls)” value (normal human melanocytes [2]; Step 1, A 0.1% (w/v), 72 h, single values) was 74.3 % of the controls and 76.4 % of the controls and 74.2 % of the controls and 71.3 % of the controls and the “Intra cellular content of melanine in the cultured cells, result in words” value (normal human melanocytes [2]; cultured normal human melanocytes) was “clear decrease”. For the same compound, the “Inhibiting activity on tyrosinase, result in words” value (tyrosinase) was “inhibiting activity on tyrosinase”.
For `O=c1cc(CO)occ1O` [Kojic Acid, Kojic acid], the “Ratio melanine/Proteins (% of the controls), Mean” value (normal human melanocytes [2]; Step 1, Kojic Acid 250 μM in DMSO, 72 h, mean) was 77.40* % of the controls, the “% of the controls (mean ratio melanine/proteins, controls = 100)” value (normal human melanocytes [2]; Step 2, Kojic Acid 250 μM, 72 h) was 84.5 % of the controls and the “Ratio melanine/Proteins (% of the controls), Mean” value (normal human melanocytes [2]; Step 2, Kojic Acid 250 μM, 72 h, mean (controls mean 119.2)) was 100.8* % of the controls. For the same compound, the “Ratio melanine/Proteins (% of the controls)” value (normal human melanocytes [2]; Step 2, Kojic Acid 250 μM, 72 h, single values) was 106.3 % of the controls and 93.2 % of the controls and 102.8 % of the controls and 94.1 % of the controls and 97.9 % of the controls and the “Decrease of the intra cellular content of melanine in the culture cells” value (normal human melanocytes [2]; Step 2, Kojic acid at 250 μM, 72 h, p<0.05) was 15.5%.
